Here are results for ten compounds from patent US8633161B2, “Therapeutic agents for the treatment of leukemia” (The Ohio State University Research Foundation, priority 2005, dated 2014).

Counter-ions that a name gives are not always drawn. Like-named read-outs stand apart in the source and are kept apart here. Square brackets hold non-standard residues; d marks the D form. Peptide text beside a SMILES is read from it. * marks the point of attachment. Myristoyl = CCCCCCCCCCCCCC(=O)*; Nle = CCCC[C@H](N)C(=O)O

Series [1] addresses T1, PP2A (Mus musculus, UniProt P63330).
T1 construct: endogenous in cells; host or cells: 32Dc13, 32D-BCR/ABL, 32D-BCR/ABL-T315I, 32D-p210 Y253H, BaF3-p210 T315I, K562, primary CML-BC CD34+ and NBM CD34+ cells
The series can be described thus: PP2A IP phosphatase assay on lysates of treated cells. The class given is cell-based. Here is the method:
PP2A phosphatase assays were carried out using the PP2A IP phosphatase assay kit (Upstate). Briefly, protein lysates (50 μg) in 100 μl of 20 mM HEPES (pH 7.0)/100 mM NaCl, 5 μg of PP2Ac antibody (Upstate), and 25 μl of Protein A-agarose were added to 400 μl of 50 mM Tris (pH 7.0)/100 mM CaCl2, and IPs were carried out at 4° C. for 2 hr. IPs were washed and used in the phosphatase reaction according to the manufacturer's protocol. Specificity of the PP2A assay was assessed by titration with okadaic acid and by ascertaining the absence of PP1a in the PP2A immunoprecipitates (Figure S2A). As internal control, the amount of immunoprecipitated PP2A was also monitored by anti-PP2Ac Western blots (Figure S2B).

The subject of series [2] is BCR/ABL. The series can be described thus: Western blot of BCR/ABL activity (phosphotyrosine) and expression. Particulars: for EC50: 18-24 hr, read-out: EC50 of downregulation of BCR/ABL; for BCR/ABL activity and expression: HA-PP2Ac-transduced 32D-BCR/ABL cells, okadaic acid 0.25 nM, 1 hr. The class given is cell-based. On the technique in general: Immunoblotting shows a protein as a band on a membrane.
Procedure: Cells (10^7) were lysed in 100 μl of RIPA buffer (150 mM NaCl, 1% NP-40, 0.1% SDS, 50 mM Tris [pH 8.0]) supplemented with 1 mM PMSF, 25 μg/ml aprotinin, 10 μg/ml leupeptin, 100 μg/ml pepstatin A, 5 mM benzamidine, 1 mM Na3VO4, 50 mM NaF, 10 mM β-glycerol-phosphate. After incubation on ice (30 min), lysates were clarified (12,000×g, 15 min, 4° C.), denatured, and subjected to SDS-PAGE and Western blot (Iervolino et al., 2002). The antibodies used were goat polyclonal anti-SET(I2PP2A), -pp32(I1PP2A), and -hnRNP A1 and rabbit polyclonal anti-SHP-1 (Santa Cruz Biotechnology); monoclonal anti-Abl (Ab-3), -c-myc (Ab-2), -phosphotyrosine PY20 (Ab-4), and -pBAD^S112 (Ab-1) (EMD); monoclonal anti-hnRNP A1 (9H10) (G. Dreyfuss, University of Pennsylvania, Philadelphia, Pa.); monoclonal anti-GRB2 and -Rb (BD TransLab Inc.); monoclonal anti-HA (Covance); monoclonal anti-PP2Ac, clone 1D6 (Upstate Inc.); monoclonal anti-FLAG, clone M2 (Sigma); monoclonal anti-pERK^T202/Y204 and rabbit polyclonal anti-pAKT^T308, pSTAT5^Y694, -pJak2^Y1007/1008, -Jak2, -BAD, -Akt, and -ERK1/2 (Cell Signaling Technology Inc.); monoclonal anti-STATS (Invitrogen); rabbit monoclonal anti-pPP2A^Y307 (Epitomics); rabbit polyclonal anti-PR65/A (Calbiochem). IPs were carried out in 20 mM HEPES (pH 7.0), 150 mM NaCl, and 0.2% NP-40 supplemented with protease and phosphatase inhibitors. Lysates were precleared and immunoprecipitated with Ab-coated beads for 3 hr at 4° C. After washings, IPs were subjected to SDS-PAGE and Western blot.

Series [3] relates to NBM CD34+ cells. The series can be described thus: Methylcellulose colony formation of normal CD34+ marrow cells. It counts as cell-based, human. Particulars: NBM CD34+ cells (normal CD34+ myeloid progenitors). Here is the method:
The Ph^1 K562, the BCR/ABL-expressing 32Dc13 and BaF3 cells, and their derivative lines were maintained in culture in IMDM/10% FBS/2 mM L-glutamine. The SET shRNA-, HA-PP2Ac-, and HA-PP2Ac/FLAG-SET-expressing cells were generated by retroviral infection followed by either antibiotic-mediated selection or FACS-mediated sorting of the GFP+ (green fluorescent protein) cells as described (Perrotti et al., (2002), Nat. Genet. 30:48-58). The following cells were kind gifts: 32D-p210^Y253H (B. Calabretta; TJU, Philadelphia, Pa.); BaF3-p210^T315I (B. Druker; OHSU, Portland, Oreg.); TonB210.1 (G. Daley; Harvard University, Cambridge, Mass.). Frozen samples of CD34+ bone marrow cells (NBM) from different healthy donors were from AllCells LLC (Berkeley, Calif.). […] Erythroid differentiation of K562 and derivative cell lines was assessed by o-Dianisidine (Fast Blue B; Sigma) staining of methylcellulose colonies. […]
Methylcellulose colony formation assays were carried out by plating 103 or 5×10^4 cells from BCR/ABL cell lines or primary human CML and mouse BMC, respectively, in 0.9% MethoCult H4230 (Stem Cell Technologies Inc.). […] Colonies (>125 μm) from cell lines and primary cells were scored 7 and 15 days later, respectively.

The subject of series [4] is 32D-BCR/ABL (T315I) cells. Particulars: for treated mice BCR/ABL negative and alive 18 weeks after cell injection: after 4 weeks from restarting therapy.
For series [5] the following is noted: i.p.; cited from earlier work.
The test system of series [6] is imatinib-sensitive and -resistant BCR/ABL+ cell lines. In words: Methylcellulose colony formation of BCR/ABL cell lines. The class given is cell-based. Here is the method: Methylcellulose colony formation assays were carried out by plating 103 or 5×10^4 cells from BCR/ABL cell lines or primary human CML and mouse BMC, respectively, in 0.9% MethoCult H4230 (Stem Cell Technologies Inc.). Where indicated, cells were plated in the presence of rhIL-3 (100 ng/ml) or rhG-CSF (25 ng/ml). Colonies (>125 μm) from cell lines and primary cells were scored 7 and 15 days later, respectively.

Series [7] relates to BCR/ABL-transduced wild-type and SHP-1-deficient CD34+ mouse marrow cells. In words: Clonogenic assay of BCR/ABL-transduced mouse CD34+ marrow cells. Particulars: forskolin 40 μM. It counts as cell-based. The method, then:
Normal murine hematopoietic marrow cells were obtained from the femurs of wild-type and SHP-1-deficient “viable moth eaten” mice (The Jackson Laboratory). After hypotonic lysis and Ficoll separation, cells were used for the isolation of the CD34+/lin− fraction (Miltenyi Biotech). […] Pear, University of Pennsylvania, Philadelphia, Pa.). GFP+ (Iervolino et al., 2002) wild-type and SHP-1−/− CD34+ cells (10^6) were treated or not with forskolin (40 μM; 48 hr) and used in clonogenic assay or processed for Western blot. Where indicated, cells were treated with the following: […] Methylcellulose colony formation assays were carried out by plating 103 or 5×10^4 cells from BCR/ABL cell lines or primary human CML and mouse BMC, respectively, in 0.9% MethoCult H4230 (Stem Cell Technologies Inc.). Where indicated, cells were plated in the presence of rhIL-3 (100 ng/ml) or rhG-CSF (25 ng/ml).

For series [8], the system named is BCR/ABL+ cell lines and primary CML-BC CD34+ cells. The series can be described thus: Growth and apoptosis (annexin V) in liquid culture of BCR/ABL+ cells. The class given is cell-based. The conditions noted are these: after 48 hr of forskolin treatment.
Series [9] has as its system 32D-BCR/ABL cells. The conditions noted are these: for mice still alive: 15 weeks postinjection.
The test system of series [10] is Akt. In words: Western blot of phosphorylated and total Akt. The class given is cell-based. The conditions noted are these: okadaic acid (0.25 nM) added to FTY720.
Setting [11] is: BCR/ABL+ cell lines and CML-BC CD34+ marrow blasts, exposure 18-24 hr, forskolin 40 μM.
Setting [12] is: PP2A-expressing 32D-BCR/ABL cells, 25 μM, 8 hr.

Broadly, the LD50 is the dose at which mortality reaches 50%. Regarding `C=C[C@@]1(C)CC(=O)[C@@H]2[C@@]3(C)CCCC(C)(C)[C@@H]3[C@H](O)[C@H](OC(C)=O)[C@@]2(C)O1` [1,9-dideoxy-forskolin], the PP2A activity entry in [1] (setting [11]) was “enhanced”. In addition, in [2] (setting [11]), the BCR/ABL phosphorylation result is listed as “abolished”. In addition, the EC50 in series [2] (imatinib-resistant cells) amounted to 25 µM; in series [2] (imatinib-sensitive cells) it was 18 µM. Besides, the “decrease in IL-3-dependent clonogenicity / cytokine-driven colony formation” value in [3] is no more than 15%. Further, in series [4] (8 mg/kg/week i.p., 18 weeks after cell injection), the toxic side effects result is recorded as “no signs of toxic side effects”. For the same compound, the “survival and BCR/ABL status (nested RT-PCR, peripheral blood)” value in series [4] (8 mg/kg/week i.p., after 4 weeks of treatment) is “all alive and BCR/ABL negative”. In addition, the “treated mice BCR/ABL negative and alive 18 weeks after cell injection” value in [4] (of cell-injected mice) was 50%; in series [4] (of treated mice) it was 100%. For the same compound, the mice alive in series [4] (after 7 weeks of treatment) was determined as 70%. For the same compound, in series [4] (after suspension of treatment), the “remaining mice tested BCR/ABL+” value was 50%. Besides, the “mice relapsed and died of acute leukemia-like disease” value in [4] (within 4 weeks from the end of treatment) was found to be 20%. Also, in [5], the LD50 is recorded as 68 mg/kg.

On to `CCCC[C@@H](C=O)NC(=O)[C@H](CC(C)C)NC(=O)[C@H](CC(C)C)NC(C)=O` [ALLN] (Ac-Leu-Leu-[Nle]-aldehyde), for which, in series [2] (setting [12]), the BCR/ABL expression entry is given as “restored” and the “PP2A-induced BCR/ABL tyrosine dephosphorylation” value is recorded as “did not prevent”.

`COC[C@@H]([C@H](O)[C@H](O)C(=O)NCC[C@H](C)c1nc(/C=C/C[C@@H]2O[C@]3(C[C@@H](O)[C@@H]2C)O[C@H]([C@H](C[C@H](O)[C@H](C)[C@H](O)[C@H](C)/C=C(C)/C(C)=C/C=C/C(C)=C\C#N)OC)[C@H](OP(=O)(O)O)C3(C)C)co1)N(C)C` [calyculin A]: the “BCR/ABL activity and expression” value in series [2] is listed as “restored”.

As for `C=C[C@@]1(C)CC(=O)[C@]2(O)[C@@]3(C)[C@@H](O)CCC(C)(C)[C@@H]3[C@H](O)[C@H](OC(C)=O)[C@@]2(C)O1` [forskolin], the EC50 was found to be 25 µM in series [2] (imatinib-resistant cells) and 18 µM in series [2] (imatinib-sensitive cells). Moreover, in series [6], the “inhibition of clonogenic potential (average)” value was found to be 75%. Moreover, in [7], the “decrease of clonogenic potential” value is reported as roughly 70%. Besides, the “percentage of apoptosis (annexin V+ cells)” value in [8] (BCR/ABL+ cell lines) was found to be 80%; in [8] (primary CML-BC cells), 95%. For the same compound, the mice still alive stood at 100% in series [9] (control mice that received only forskolin) and 40% in [9] (forskolin-treated cell-injected mice). In series [9] (forskolin-treated mice injected with 32D-BCR/ABL cells), the median survival is recorded as 8 weeks. Also, the LD50 in series [5] was 67 mg/kg.

`Cc1ccc(NC(=O)c2ccc(CN3CCN(C)CC3)cc2)cc1Nc1nccc(-c2cccnc2)n1` [imatinib, imatinib mesylate]: the PP2A activity entry in series [1] (32D-BCR/ABL cells, 1 μM, 24 hr) is recorded as “restored to normal levels”; in series [1] (imatinib-resistant BaF3p210 T315I cells), “did not rescue”.

With `C=C1[C@@H](O)[C@@H]2O[C@]3(CC[C@H](/C=C/[C@@H](C)[C@@H]4CC(C)=C[C@@]5(O[C@H](C[C@@](C)(O)C(=O)O)CC[C@H]5O)O4)O3)CC[C@H]2O[C@@H]1[C@@H](O)C[C@H](C)[C@H]1O[C@@]2(CCCCO2)CC[C@H]1C` [okadaic acid], the “BCR/ABL activity and expression” value in series [2] was “restored”. In addition, in series [10], the “apoptosis and effect on PP2A targets (e.g. Akt dephosphorylation) observed with FTY720” value is “abrogates in part”.

In the case of `O.O.O.O.O.O.O.O.O.O=C([O-])[C@@H]1[O][Sb]2([O-])([O][Sb]34([OH])[O][C@H]([C@H](O)CO)[C@H]([O]3)[C@H](C(=O)[O-])[O]4)[O][C@H]([C@H](O)CO)[C@@H]1[O]2.[Na+].[Na+].[Na+]` [sodium stibogluconate], the BCR/ABL phosphorylation result in series [2] (SET shRNA- and HA-PP2A-expressing 32D-BCR/ABL cells) is “restored”.

`Cn1c(=O)c2[nH]cnc2n(C)c1=O` [theophylline]: the BCR/ABL expression/activity entry in [2] (100 μM, 24 hr) is listed as “did not affect”.

In the case of butyryl-forskolin, in series [1] (setting [11]), the PP2A activity result is reported as “enhanced”. Moreover, the BCR/ABL phosphorylation entry in [2] (setting [11]) is “abolished”. Further, the values for the EC50 in series [2] (imatinib-resistant cells) and in series [2] (imatinib-sensitive cells) were 25 µM and 18 µM, respectively.

Consider “myristoylated-PKI(14-22)-amide (Myristoyl-SGRTGRRNA-NH2; SMILES CCCCCCCCCCCCCC(=O)N[C@@H](CO)C(=O)NCC(=O)N[C@@H](CCCNC(=N)N)C(=O)N[C@H](C(=O)NCC(=O)N[C@@H](CCCNC(=N)N)C(=O)N[C@@H](CCCNC(=N)N)C(=O)N[C@@H](CC(N)=O)C(=O)N[C@@H](C)C(N)=O)[C@@H](C)O; UniProt P61925 14-22, looked up, fragment)”, for which the “forskolin-induced BCR/ABL downregulation” value in series [2] (4 μM, 24 hr, with forskolin) is recorded as “did not inhibit”.
